From US5262157A (priority 1988, dated 1993)

How the values were obtained:
Pneumocystis carinii [1] = details: patients with AIDS, IV or IM 4 mg/kg/day, 14-21 days; cited from earlier work
[2] = human, in vivo
From the text: Patients were 18 years old or older and outpatients judged free of any imminently-critical medical problems. All patents received a complete physical examination and medical history evaluation. Pretreatment laboratory studies included a CBC with differential and platelet count, a biochemical screening profile, chest X-ray, and pulmonary function tests including spirometry and measurement of diffusion capacity.
Each patient was issued a device at the start of the study. These devices were labeled with the patient's code number. The devices are simple to operate and their sterility was ensured as components were replaced after a single use. New sterile plastic reservoirs for the drug solution and new sterile suction rods were used for each treatment.
Each aerosol treatment was given over 15-30 minutes. […] 1.0, 1.5,or 2.0 ml aliquots were added to the nebulizer reservoir for doses of 30, 45, or 60 mg, respectively. Sterile pyrogen-free water was added to yield a total volume of 3.0 ml. Treatments were administered by a physician or registered nurse.
Signs of systemic toxicity were monitored. To detect adverse effects on the lungs, pulmonary function was monitored.
All problems were judged a concomitant illness or adverse reaction based on the following definitions. […]
Patients were interviewed before and after each treatment and any adverse reactions, complaints, or comments recorded. […]

in vivo [3] = assay: in vivo
Protocol: The dose was calculated from the product of the concentration of the drug in the chamber, the minute volume of the rats (lung vol.×resp. rate), and the time of exposure. In all experiments exposure time was 15 min, male Sprague-Dawley rats with an average weight of 250 g were used, and the minute volume of the rats was assumed to be 70 ml. Rats were treated in groups of four. […] The aerosol was generated by oxygen flowing at 8 l/min through the nebulizer (Cadema Medical Products, part no. CA 61, Middletown, N.Y.). The drug solution was aerosolized at 0.3 ml/min with an expected mean particle diameter of 0.5-0.8 micron. […] This concentration multiplied by the minute volume and the exposure time gives a dose of 1.0 mg; since the rats weighed 0.25 kg, the dose was 4.0 mg/kg. Doses in all trials were calculated as above.
Four rats were studied at each time.

in vivo [4] = details: rat, im, 4 mg/kg, level in the lungs
Protocol: Intramuscular (IM) doses were administered to the hindcalves of male Sprague-Dawley rats (240-260 g, Charles River Breeding Laboratories, Wilmington, Mass.).
Animals were sacrificed at 24 h after the last dose.

Pneumocystis carinii [5] = details: animal model of PCP; cited from earlier work
in vivo [6] = details: rat; for Pentamidine concentration, Kidney: aerosol 0.4 mg/kg/day, 24 h after last dose
Protocol: Rats were treated in groups of four. […] Doses in all trials were calculated as above.

[7] = rat, in vivo, inhaled or intranasal, 4 mg/kg

N=C(N)c1ccc(OCCCCCOc2ccc(C(=N)N)cc2)cc1 [pentamidine, Pentamidine isethionate]
treatment of PCP infection (Pneumocystis carinii [1]): highly effective in treatment of PCP infection | tolerability of treatments [2]: well tolerated | amount retained per animal (in vivo [3]; rat, in vivo, 4 mg/kg): 60 µg | fraction of inhaled drug retained (in vivo [3]; rat, in vivo, 4 mg/kg): about 6.0% | retained dose (in vivo [3]; rat, in vivo, 4 mg/kg): 0.24 mg/kg | amount of drug retained in the lungs (in vivo [3]; [7]): about 40 mcg/g | half-life (in vivo [3]; [7]): 36 days | retention in the lungs (in vivo [3]; single aerosol dose): retained in the lungs for many weeks | concentration at 24 h (in vivo [4]): 800 ng/g | prophylaxis of PCP with IV or IM pentamidine (Pneumocystis carinii [5]): unsuccessful in the animal model of PCP | Pentamidine concentration, Kidney (in vivo [6]; 1 dose): NMA | Pentamidine concentration, Kidney (in vivo [6]; 2 doses): NMA | Pentamidine concentration, Kidney (in vivo [6]; 4 doses): NMA | concentration at 24 h (in vivo [6]; in vivo, inhaled or intranasal, 0.4 mg/kg/day, levels in the lung): 60500 ng/g
